Laboratory results published in patent US10092570B2 (Incyte Corporation, priority 2011, dated 2018).
Structures can show the parent of a compound that is named as a salt.

Test system: Pfeiffer cell line (diffuse large B cell lymphoma)
Assay: Example B2: Pfeiffer cell proliferation assay
Type: cell-based
Details: Pfeiffer cells, [3H]-thymidine incorporation
Description: Pfeiffer cell line (diffuse large B cell lymphoma) are purchased from ATCC (Manassas, Va.) and maintained in the culture medium recommended (RPMI and 10% FBS). To measure the anti-proliferation activity of the compounds, the Pfeiffer cells are plated with the culture medium (2×10^3 cells/well/per 200 μl) into 96-well ultra-low binding plates (Corning, Corning, N.Y.), in the presence or absence of a concentration range of test compounds. After 3-4 days, [^3H]-thymidine (1 μCi/well) (PerkinElmer, Boston, Mass.) in PBS is then added to the cell culture for an additional 12 hours before the incorporated radioactivity is separated by filtration with water through GF/B filters (Packard Bioscience, Meridenj, Conn.) and measured by liquid scintillation counting with a TopCount (Packard Bioscience).

Row | IC50 (Homo sapiens, Pfeiffer) | IC50 | Compound
1 | < 10 nM | – | COc1c(C(C)n2nc(C)c3c(N)ncnc32)cc(Cl)c(Cl)c1C1CN(CC(C)(C)O)C1 (single isomer, unassigned) [Example 303, 1-(3-{3-[1-(4-Amino-3-methyl-1H-pyrazolo[3,4-d]pyrimidin-1-yl)ethyl]-5,6-dichloro-2-methoxyphenyl}azetidin-1-yl)-2-methylpropan-2-ol]
2 | < 10 nM | – | CCOc1c(C(C)n2nc(C)c3c(N)ncnc32)cc(Cl)c(C#N)c1C1CN(C(=O)NC)C1 (single isomer, unassigned) [Example 257, 3-{3-[1-(4-Amino-3-methyl-1H-pyrazolo[3,4-d]pyrimidin-1-yl)ethyl]-5-chloro-6-cyano-2-ethoxyphenyl}-N-methylazetidine-1-carboxamide]
3 | < 10 nM | – | CCOc1c(C(C)n2nc(C)c3c(N)ncnc32)cc(Cl)c(C#N)c1C1CN(C(C)C)C1 (single isomer, unassigned) [Example 215, 4-[1-(4-Amino-3-methyl-1H-pyrazolo[3,4-d]pyrimidin-1-yl)ethyl]-6-chloro-3-ethoxy-2-(1-isopropylazetidin-3-yl)benzonitrile]
4 | < 10 nM | – | CCOc1c(C(C)n2nc(C)c3c(N)ncnc32)cc(Cl)c(F)c1C1CNC(=O)C1 (single isomer, unassigned) [Example 346, 4-{3-[1-(4-amino-3-methyl-1H-pyrazolo[3,4-d]pyrimidin-1-yl)ethyl]-5-chloro-2-ethoxy-6-fluorophenyl}pyrrolidin-2-one]
5 | < 10 nM | – | CCOc1c(C(C)n2nc(C)c3c(N)ncnc32)cc(Cl)c(F)c1C1COC(=O)N1 (single isomer, unassigned) [Example 354, 4-{3-[1-(4-amino-3-methyl-1H-pyrazolo[3,4-d]pyrimidin-1-yl)ethyl]-5-chloro-2-ethoxy-6-fluorophenyl}-1,3-oxazolidin-2-one]
6 | < 10 nM | – | COc1c(C(C)n2nc(C)c3c(N)ncnc32)cc(Cl)c(F)c1C1CN(C(C)C)C1 (stereo not drawn) [67 (1st peak), 1-{1-[5-Chloro-4-fluoro-3-(1-isopropylazetidin-3-yl)-2-methoxyphenyl]ethyl}-3-methyl-1H-pyrazolo[3,4-d]pyrimidin-4-amine]
7 | < 10 nM | – | COc1c(C(C)n2nc(C)c3c(N)ncnc32)cc(Cl)c(C#N)c1C1CN(CC(C)(C)O)C1 (single isomer, unassigned) [Example 271, 4-[1-(4-Amino-3-methyl-1H-pyrazolo[3,4-d]pyrimidin-1-yl)ethyl]-6-chloro-2-[1-(2-hydroxy-2-methylpropyl)azetidin-3-yl]-3-methoxybenzonitrile]
8 | < 10 nM | – | CCOc1c(C(C)n2nc(C)c3c(N)ncnc32)cc(Cl)c(F)c1C1CN(CCO)C1 (racemic) [Example 144, 2-(3-{3-[1-(4-Amino-3-methyl-1H-pyrazolo[3,4-d]pyrimidin-1-yl)ethyl]-5-chloro-2-ethoxy-6-fluorophenyl}azetidin-1-yl)ethanol]
9 | < 10 nM | – | CCOc1c(C(C)n2nc(C)c3c(N)ncnc32)cc(Cl)c(C#N)c1C1CN(CC(C)(C)O)C1 (single isomer, unassigned) [Example 222, 4-[1-(4-Amino-3-methyl-1H-pyrazolo[3,4-d]pyrimidin-1-yl)ethyl]-6-chloro-3-ethoxy-2-[1-(2-hydroxy-2-methylpropyl)azetidin-3-yl]benzonitrile]
10 | < 10 nM | – | CCOc1c(C(C)n2nc(C)c3c(N)ncnc32)cc(Cl)c(F)c1C1CN(CC(N)=O)C1 (racemic) [Example 148, 2-(3-{3-[1-(4-Amino-3-methyl-1H-pyrazolo[3,4-d]pyrimidin-1-yl)ethyl]-5-chloro-2-ethoxy-6-fluorophenyl}azetidin-1-yl)acetamide]
11 | < 10 nM | – | COc1c(C(C)n2nc(C)c3c(N)ncnc32)cc(Cl)c(F)c1C1CN(C[C@H](C)O)C1 (single isomer, unassigned) [68 (1st peak)]
12 | < 10 nM | – | CCOc1c(C(C)n2nc(C(F)F)c3c(N)ncnc32)cc(Cl)c(F)c1C1CN(CCO)C1 (racemic) [Example 152, 2-[3-(3-{1-[4-Amino-3-(difluoromethyl)-1H-pyrazolo[3,4-d]pyrimidin-1-yl]ethyl}-5-chloro-2-ethoxy-6-fluorophenyl)azetidin-1-yl]ethanol]
13 | < 10 nM | – | COc1c(C(C)n2nc(C)c3c(N)ncnc32)cc(Cl)c(Cl)c1C1CN(CCO)C1 (single isomer, unassigned) [Example 300, 2-(3-{3-[1-(4-Amino-3-methyl-1H-pyrazolo[3,4-d]pyrimidin-1-yl)ethyl]-5,6-dichloro-2-methoxyphenyl}azetidin-1-yl)ethano]
14 | < 10 nM | – | CCOc1c(C(C)n2nc(C)c3c(N)ncnc32)cc(Cl)c(C#N)c1C1CN(S(C)(=O)=O)C1 (single isomer, unassigned) [Example 248, 4-[1-(4-Amino-3-methyl-1H-pyrazolo[3,4-d]pyrimidin-1-yl)ethyl]-6-chloro-3-ethoxy-2-[1-(methylsulfonyl)azetidin-3-yl]benzonitrile]
15 | < 10 nM | – | CCOc1c(C(C)n2nc(C)c3c(N)ncnc32)cc(Cl)c(C#N)c1C1CN(CC)C1 (single isomer, unassigned) [Example 214, 4-[1-(4-Amino-3-methyl-1H-pyrazolo[3,4-d]pyrimidin-1-yl)ethyl]-6-chloro-3-ethoxy-2-(1-ethylazetidin-3-yl)benzonitrile]
16 | < 10 nM | – | CCOc1c(C(C)n2nc(C)c3c(N)ncnc32)cc(Cl)c(C#N)c1C1CN(CCO)C1 (stereo not shown) [Example 219, 4-[1-(4-Amino-3-methyl-1H-pyrazolo[3,4-d]pyrimidin-1-yl)ethyl]-6-chloro-3-ethoxy-2-[1-(2-hydroxyethyl)azetidin-3-yl]benzonitrile]
17 | < 10 nM | – | CCOc1c(C(C)n2nc(C)c3c(N)ncnc32)cc(Cl)c(C#N)c1C1CNC(=O)C1 (single isomer, unassigned) [Example 349, 4-[1-(4-amino-3-methyl-1H-pyrazolo[3,4-d]pyrimidin-1-yl)ethyl]-6-chloro-3-ethoxy-2-(5-oxopyrrolidin-3-yl)benzonitrile]
18 | < 10 nM | – | CCOc1c(C(C)n2nc(C)c3c(N)ncnc32)cc(C)c(C#N)c1-c1ccc(C(=O)N(C)C)nc1 (stereo not shown) [Example 314, 5-{3-[1-(4-amino-3-methyl-1H-pyrazolo[3,4-d]pyrimidin-1-yl)ethyl]-6-cyano-2-ethoxy-5-methylphenyl}-N,N-dimethylpyridine-2-carboxamide]
19 | < 10 nM | – | COc1c(C(C)n2nc(C(F)F)c3c(N)ncnc32)cc(Cl)c(F)c1C1CN(C)C1 (racemic) [Example 75, 1-{1-[5-Chloro-4-fluoro-2-methoxy-3-(1-methylazetidin-3-yl)phenyl]ethyl}-3-(difluoromethyl)-1H-pyrazolo[3,4-d]pyrimidin-4-amine]
20 | < 10 nM | – | COc1c(C(C)n2nc(C)c3c(N)ncnc32)cc(Cl)c(C)c1-c1cncc(C(=O)N2CC(C#N)C2)c1 (single isomer, unassigned) [Example 177, 1-[(5-{3-[1-(4-amino-3-methyl-1H-pyrazolo[3,4-d]pyrimidin-1-yl)ethyl]-5-chloro-2-methoxy-6-methylphenyl}pyridin-3-yl)carbonyl]azetidine-3-carbonitrile]
21 | – | < 10 nM | CCOc1c(C(C)n2nc(C)c3c(N)ncnc32)cc(Cl)c(F)c1C1CNC(=O)C1 (single isomer, unassigned) [Example 347, 4-{3-[1-(4-amino-3-methyl-1H-pyrazolo[3,4-d]pyrimidin-1-yl)ethyl]-5-chloro-2-ethoxy-6-fluorophenyl}pyrrolidin-2-one]
22 | < 10 nM | – | COc1c(C(C)n2nc(C)c3c(N)ncnc32)cc(Cl)c(C#N)c1-c1ccc(C(=O)N(C)C)nc1 (stereo not shown) [Example 313, 5-{3-[1-(4-amino-3-methyl-1H-pyrazolo[3,4-d]pyrimidin-1-yl)ethyl]-5-chloro-6-cyano-2-methoxyphenyl}-N,N-dimethylpyridine-2-carboxamide]
23 | < 10 nM | – | COc1c(C(C)n2nc(C(F)F)c3c(N)ncnc32)cc(Cl)c(C)c1-c1ccc(C(=O)N(C)C)nc1 (stereo not shown) [Example 191, 5-(3-{1-[4-Amino-3-(difluoromethyl)-1H-pyrazolo[3,4-d]pyrimidin-1-yl]ethyl}-5-chloro-2-methoxy-6-methylphenyl)-N,N-dimethylpyridine-2-carboxamide]
24 | < 10 nM | – | CCOc1c(C(C)n2nc(C)c3c(N)ncnc32)cc(Cl)c(C)c1-c1ccc(C(=O)N(C)C)nc1 (stereo not shown) [Example 195, 5-(3-(1-(4-Amino-3-methyl-1H-pyrazolo[3,4-d]pyrimidin-1-yl)ethyl)-5-chloro-2-ethoxy-6-methylphenyl)-N,N-dimethylpicolinamide bis(2,2,2-trifluoroacetate)]
25 | < 10 nM | – | CCOc1c(C(C)n2nc(C)c3c(N)ncnc32)cc(Cl)c(C)c1-c1cncc(C(=O)N(C)C)c1 (single isomer, unassigned) [Example 196, 5-(3-(1-(4-amino-3-methyl-1H-pyrazolo[3,4-d]pyrimidin-1-yl)ethyl)-5-chloro-2-ethoxy-6-methylphenyl)-N,N-dimethylnicotinamide]
26 | 10 to 50 nM | – | COc1c(C(C)n2nc(C)c3c(N)ncnc32)cc(Cl)c(C)c1C1CN(C(=O)[C@@H](C)O)C1 (single isomer, unassigned) [Example 121, trifluoroacetate]

Row | Compound | IC50 (Homo sapiens, Pfeiffer) | IC50
27 | COc1c(C(C)n2nc(C)c3c(N)ncnc32)cc(Cl)c(C)c1-c1ccc(C(=O)N(C)C)nc1 (stereo not shown) [Example 167, 5-(3-(1-(4-Amino-3-methyl-1H-pyrazolo[3,4-d]pyrimidin-1-yl)ethyl)-5-chloro-2-methoxy-6-methylphenyl)-N,N-dimethylpicolinamide bis(2,2,2-trifluoroacetate)] | < 10 nM | –
28 | COc1c(C(C)n2nc(C)c3c(N)ncnc32)cc(Cl)c(C)c1-c1ccnc(C(=O)N(C)C)c1 (stereo not shown) [Example 200, 4-(3-(1-(4-Amino-3-methyl-1H-pyrazolo[3,4-d]pyrimidin-1-yl)ethyl)-5-chloro-2-methoxy-6-methylphenyl)-N,N-dimethylpicolinamide bis(2,2,2-trifluoroacetate)] | < 10 nM | –
